target: SAE (Homo sapiens (Human), UniProt Q9UBT2); assay: In vitro inhibitory activity assay against SAE (SUMO-2/3 immunofluorescence in HCT116 cells); assay type: cell-based; conditions: 6 h incubation, class symbols, read-out: SUMO IF IC50
Experimental: HCT116 cells were seeded into a 96-well black transparent bottom plate at about 20000/well with 90 μL per well. The cells were incubated at 37° C. overnight for 24 h. The test compounds were 10-fold diluted to give a final concentration, and 10 μL of the diluted compounds was added to each well of the cell culture plate. The mixture was incubated at 37° C. for 6 h. The cells were then washed gently, the culture medium was discarded, and the cells were washed once with 200 μL of 0.1% o PBST. 50 μL of 4% PFA was added to each well, and the cells were immobilized at room temperature for 20 min, and then washed with PBS 2-3 times. 50 μL of 0.2% o Triton X-100 was added to each well, and the cells were left to stand at room temperature for 15 min and washed with 0.1% PBST 3 times. 100 uL of 3% BSA (0.6 g BSA+20 mL PBS) was added to each well, and the mixture was blocked at 37° C. for 30 min. After the blocking was completed, the liquid was removed and a primary antibody (SUMO-2/3 (181H8) Rabbit mAb, 1:400 dilution) was prepared with […]. 30 μL of the diluted primary antibody was added to each well, and the mixture was incubated at 4° C. overnight. The cells were washed 3 times with 200 μL of 0.1% o PBST. A FITC secondary antibody (Fluorescein (FITC)-conjugated Affinipure Goat Anti-Rabbit IgG (H+L), 1:300 dilution) was further prepared with 1% o BSA, and 40 μL of the diluted secondary antibody was added to each well. The mixture was incubated at room temperature in the dark for 2 h, and then the cells were washed 4 times with 0.1% PBST. The fluorescence signal of the sample was detected and compared to the DMSO group, and the inhibition rate and IC50 were calculated.

Chain of SAE (Q9UBT2 whole entry): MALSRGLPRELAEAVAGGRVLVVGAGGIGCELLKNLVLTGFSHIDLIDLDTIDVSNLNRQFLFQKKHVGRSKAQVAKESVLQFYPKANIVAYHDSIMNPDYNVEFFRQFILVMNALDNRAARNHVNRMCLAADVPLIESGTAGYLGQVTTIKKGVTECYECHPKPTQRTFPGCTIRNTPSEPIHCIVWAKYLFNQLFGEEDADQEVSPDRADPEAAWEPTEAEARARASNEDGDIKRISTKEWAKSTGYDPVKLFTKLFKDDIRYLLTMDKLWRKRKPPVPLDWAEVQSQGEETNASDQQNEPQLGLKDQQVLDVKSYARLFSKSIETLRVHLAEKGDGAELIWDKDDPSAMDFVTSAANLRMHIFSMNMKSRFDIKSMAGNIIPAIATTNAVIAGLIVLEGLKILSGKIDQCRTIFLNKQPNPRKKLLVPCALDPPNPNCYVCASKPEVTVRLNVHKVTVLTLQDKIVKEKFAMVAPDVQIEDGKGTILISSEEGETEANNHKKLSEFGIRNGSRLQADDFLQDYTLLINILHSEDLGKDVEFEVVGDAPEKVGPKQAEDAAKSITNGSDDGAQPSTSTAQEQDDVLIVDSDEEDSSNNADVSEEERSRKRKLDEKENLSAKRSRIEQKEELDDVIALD
Chain of SAE (Q9UBE0 whole entry partner): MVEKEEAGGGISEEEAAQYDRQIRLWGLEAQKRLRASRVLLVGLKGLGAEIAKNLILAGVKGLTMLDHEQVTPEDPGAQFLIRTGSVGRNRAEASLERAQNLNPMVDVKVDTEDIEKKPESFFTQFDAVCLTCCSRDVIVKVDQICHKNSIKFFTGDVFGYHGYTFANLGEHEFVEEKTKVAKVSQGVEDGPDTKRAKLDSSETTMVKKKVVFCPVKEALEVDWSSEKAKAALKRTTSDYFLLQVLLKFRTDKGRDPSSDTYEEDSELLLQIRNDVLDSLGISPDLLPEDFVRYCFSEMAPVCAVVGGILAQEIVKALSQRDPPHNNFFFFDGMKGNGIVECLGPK

`NS(=O)(=O)OC[C@H]1C[C@@H](Nc2ncncc2C(=O)c2cc3c(s2)CC[C@@]32OCCc3ccc(Cl)cc32)C[C@@H]1O` [Compound 242] and `NS(=O)(=O)OC[C@H]1C[C@@H](Nc2ncncc2C(=O)c2cc3c(s2)CCC32OCCc3ccccc32)C[C@@H]1O` (some centres unmarked) [Compound 280] cannot be ordered by IC50: > 200 nM for the first, > 200 nM for the second.

`CC(C)N1Cc2sc(C(=O)c3cncnc3N[C@@H]3C[C@H](COS(N)(=O)=O)[C@@H](O)C3)cc2[C@]2(C1)OCCc1ccc(Cl)cc12` [Compound 273] and `CN1Cc2sc(C(=O)c3cncnc3N[C@@H]3C[C@H](COS(N)(=O)=O)[C@@H](O)C3)cc2C2(C1)OCCc1ccc(F)cc12` (some centres unmarked) [Compound 256] cannot be ordered by IC50: ≤ 50 nM for the first, 50 to 200 nM for the second.

`NS(=O)(=O)OC[C@H]1C[C@@H](Nc2ncncc2C(=O)c2cc3c(s2)COC[C@]32NCCc3cc(F)c(Cl)cc32)C[C@@H]1O` [Compound 108] and `NS(=O)(=O)OC[C@H]1C[C@@H](Nc2ncncc2C(=O)c2cc3c(s2)COC[C@]32NCCc3c(F)cc(Cl)cc32)C[C@@H]1O` [Compound 111] fall in the same range of IC50: 50 to 200 nM for the first, 50 to 200 nM for the second.

`NS(=O)(=O)OC[C@H]1C[C@@H](Nc2ncncc2C(=O)c2cc3c(s2)CCCC32NCCc3cc(F)c(Cl)c(F)c32)C[C@@H]1O` (some centres unmarked) [Compound 32] and `NS(=O)(=O)OC[C@H]1C[C@@H](Nc2ncncc2C(=O)c2cc3c(s2)CCCC32NCCc3ccc(Cl)cc32)C[C@@H]1O` (some centres unmarked) [Compound 4] cannot be ordered by IC50: 50 to 200 nM for the first, ≤ 50 nM for the second.

`NS(=O)(=O)OC[C@H]1C[C@@H](Nc2ncncc2C(=O)c2cc3c(s2)CCCC32NCCc3ccc(C4CC4)cc32)C[C@@H]1O` (some centres unmarked) [Compound 23] and `NS(=O)(=O)OC[C@H]1C[C@@H](Nc2ncncc2C(=O)c2cc3c(s2)CC[C@]32NCCc3ccc(C4CC4)cc32)C[C@@H]1O` [Compound 224] fall in the same range of IC50: 50 to 200 nM for the first, 50 to 200 nM for the second.

`NS(=O)(=O)OC[C@H]1C[C@@H](Nc2ncncc2C(=O)c2cc3c(s2)CCCC32NCCc3ccncc32)C[C@@H]1O` (some centres unmarked) [Compound 34] and `NS(=O)(=O)OC[C@H]1C[C@@H](Nc2ncncc2C(=O)c2cc3c(s2)CCC[C@]32NCCc3cnc(Cl)cc32)C[C@@H]1O` [Compound 135] cannot be ordered by IC50: 50 to 200 nM for the first, ≤ 50 nM for the second.

Compared with `NS(=O)(=O)OC[C@H]1C[C@@H](Nc2ncncc2C(=O)c2cc3c(s2)COC[C@@]32NCCc3ccc(Cl)c(Cl)c32)C[C@@H]1O` [Compound 95], `NS(=O)(=O)OC[C@H]1C[C@@H](Nc2ncncc2C(=O)c2cc3c(s2)CCCC32NCCc3cc(Cl)c(Cl)cc32)C[C@@H]1O` (some centres unmarked) [Compound 28] is lower in IC50: > 200 nM for the first, 50 to 200 nM for the second. The second is the more potent here.

`NS(=O)(=O)OC[C@H]1C[C@@H](Nc2ncncc2C(=O)c2cc3c(s2)CCC[C@]32NCC3(CC3)c3ccc(Cl)cc32)C[C@@H]1O` [Compound 153] and `NS(=O)(=O)OC[C@H]1C[C@@H](Nc2ncncc2C(=O)c2cc3c(s2)CCCC32NCC3(CC3)c3ccc(Cl)cc32)C[C@@H]1O` (some centres unmarked) [Compound 39] cannot be ordered by IC50: ≤ 50 nM for the first, 50 to 200 nM for the second.

First: NS(=O)(=O)OC[C@H]1C[C@@H](Nc2ncncc2C(=O)c2cc3c(s2)CCCC32NCC(=O)c3ccc(Cl)cc32)C[C@@H]1O (some centres unmarked) [Compound 41]
Second: NS(=O)(=O)OC[C@H]1C[C@@H](Nc2ncncc2C(=O)c2cc3c(s2)CCC[C@@]32NCCc3ncc(Cl)cc32)C[C@@H]1O [Compound 140]
The IC50 of the first is lower: 50 to 200 nM for the first, > 200 nM for the second.

Compared with `NS(=O)(=O)OC[C@H]1C[C@@H](Nc2ncncc2C(=O)c2cc3c(s2)CCC32NCCc3ccc(F)cc32)C[C@@H]1O` (some centres unmarked) [Compound 49], `NS(=O)(=O)OC[C@H]1C[C@@H](Nc2ncncc2C(=O)c2nc3c(s2)CCCC32NCCc3ccc(Cl)cc32)C[C@@H]1O` (some centres unmarked) [Compound 121] is higher in IC50: 50 to 200 nM for the first, > 200 nM for the second. The first is the more potent here.

same assay, conditions: 6 h incubation, numeric values, read-out: SUMO IF IC50

In order of falling IC50:
1. Cc1sc(C(=O)c2cncnc2N[C@@H]2C[C@H](COS(N)(=O)=O)[C@@H](O)C2)cc1[C@@H]1NCCc2ccc(Cl)cc21 [TAK-981, reference compound]  53.2 nM
2. [2H]C1([2H])Cc2ccc(Cl)cc2[C@@]2(CCCc3sc(C(=O)c4cncnc4N[C@@H]4C[C@H](COS(N)(=O)=O)[C@@H](O)C4)cc32)N1 [Compound 198]  28.8 nM
3. CCN1Cc2sc(C(=O)c3cncnc3N[C@@H]3C[C@H](COS(N)(=O)=O)[C@@H](O)C3)cc2[C@]2(C1)NCCc1ccc(Cl)cc12 [Compound 183]  18.7 nM
